Reference: the NIST ThermoML archive (doi:10.1016/j.jct.2013.05.040)
Numbers after ± are expanded uncertainties.

Key:
[1] = xn = mol fraction of the nth substance listed; conditions: Liquid; for viscosity: Moving piston method; for mass density: Vibrating tube method
[2] = Liquid; for mass density: Vibrating tube method; for viscosity: 101.33 kPa, Moving piston method

Work on `CC(C)O` [propan-2-ol] + O=C=O yielded a viscosity ([1]; 302.8 K, 990 kPa, x2 = 0.062) of 1.365 ± 0.061 mPa·s, a mass density ([1]; 302.8 K, 990 kPa, x2 = 0.062) of 783.8 ± 1.3 kg/m3 and a viscosity ([1]; 302.8 K, 2000 kPa, x2 = 0.133) of 1.108 ± 0.057 mPa·s. It also gave a mass density ([1]; 302.8 K, 2000 kPa, x2 = 0.133) of 791 ± 1.3 kg/m3, a viscosity ([1]; 302.8 K, 2980 kPa, x2 = 0.212) of 0.895 ± 0.13 mPa·s and a mass density ([1]; 302.8 K, 2980 kPa, x2 = 0.212) of 798.5 ± 1.3 kg/m3. It also gave a viscosity ([1]; 302.8 K, 3970 kPa, x2 = 0.304) of 0.604 ± 0.029 mPa·s, a mass density ([1]; 302.8 K, 3970 kPa, x2 = 0.304) of 807.3 ± 3.2 kg/m3 and a viscosity ([1]; 323.1 K, 980 kPa, x2 = 0.047) of 0.895 ± 0.077 mPa·s. It also gave a mass density ([1]; 323.1 K, 980 kPa, x2 = 0.047) of 762.7 ± 2.6 kg/m3, a viscosity ([1]; 323.1 K, 1960 kPa, x2 = 0.102) of 0.743 ± 0.12 mPa·s and a mass density ([1]; 323.1 K, 1960 kPa, x2 = 0.102) of 767.2 ± 1.9 kg/m3. For the same compound, the viscosity ([1]; 323.1 K, 2950 kPa, x2 = 0.164) was 0.657 ± 0.071 mPa·s, the mass density ([1]; 323.1 K, 2950 kPa, x2 = 0.164) was 771.5 ± 3.2 kg/m3 and the viscosity ([1]; 323.1 K, 3930 kPa, x2 = 0.23) was 0.538 ± 0.081 mPa·s. The mass density ([1]; 323.1 K, 3930 kPa, x2 = 0.23) was 776.1 ± 2 kg/m3, the viscosity ([1]; 323.1 K, 4930 kPa, x2 = 0.305) was 0.394 ± 0.04 mPa·s and the mass density ([1]; 323.1 K, 4930 kPa, x2 = 0.305) was 780.3 ± 2.6 kg/m3. It also gave a viscosity ([1]; 323.1 K, 5940 kPa, x2 = 0.391) of 0.321 ± 0.017 mPa·s and a mass density ([1]; 323.1 K, 5940 kPa, x2 = 0.391) of 783.7 ± 2.6 kg/m3.

Work on `CC` [ethane] + CC(C)O yielded a viscosity ([1]; 302.9 K, 1030 kPa, x1 = 0.09) of 1.251 ± 0.058 mPa·s, a mass density ([1]; 302.9 K, 1030 kPa, x1 = 0.09) of 751.2 ± 1.3 kg/m3 and a viscosity ([1]; 302.9 K, 2030 kPa, x1 = 0.199) of 0.919 ± 0.042 mPa·s. The mass density ([1]; 302.9 K, 2030 kPa, x1 = 0.199) was 718.5 ± 1.9 kg/m3, the viscosity ([1]; 302.9 K, 3040 kPa, x1 = 0.347) was 0.526 ± 0.083 mPa·s and the mass density ([1]; 302.9 K, 3040 kPa, x1 = 0.347) was 669.3 ± 1.3 kg/m3. It also gave a viscosity ([1]; 302.9 K, 3650 kPa, x1 = 0.47) of 0.246 ± 0.023 mPa·s, a mass density ([1]; 302.9 K, 3650 kPa, x1 = 0.47) of 623 ± 1.3 kg/m3 and a viscosity ([1]; 323.1 K, 910 kPa, x1 = 0.057) of 0.882 ± 0.12 mPa·s. For the same compound, the mass density ([1]; 323.1 K, 910 kPa, x1 = 0.057) was 741.3 ± 3.8 kg/m3, the viscosity ([1]; 323.1 K, 1990 kPa, x1 = 0.141) was 0.663 ± 0.067 mPa·s and the mass density ([1]; 323.1 K, 1990 kPa, x1 = 0.141) was 716.3 ± 1.9 kg/m3. It also gave a viscosity ([1]; 323.1 K, 2970 kPa, x1 = 0.227) of 0.471 ± 0.078 mPa·s, a mass density ([1]; 323.1 K, 2970 kPa, x1 = 0.227) of 688.2 ± 3.2 kg/m3 and a viscosity ([1]; 323.1 K, 3970 kPa, x1 = 0.334) of 0.338 ± 0.042 mPa·s. The mass density ([1]; 323.1 K, 3970 kPa, x1 = 0.334) was 650.6 ± 2.6 kg/m3, the viscosity ([1]; 323.1 K, 4940 kPa, x1 = 0.478) was 0.217 ± 0.036 mPa·s and the mass density ([1]; 323.1 K, 4940 kPa, x1 = 0.478) was 593.7 ± 2.6 kg/m3. It also gave a viscosity ([1]; 323.1 K, 5620 kPa, x1 = 0.644) of 0.131 ± 0.011 mPa·s and a mass density ([1]; 323.1 K, 5620 kPa, x1 = 0.644) of 515.7 ± 1.9 kg/m3.

In the case of `CC(C)O` [propan-2-ol], the mass density ([2]; 302.9 K, 1040 kPa) is reported as 778.1 ± 0.3 kg/m3, the mass density ([2]; 302.9 K, 2000 kPa) is reported as 778.9 ± 0.4 kg/m3 and the mass density ([2]; 302.9 K, 2990 kPa) is reported as 779.8 ± 0.4 kg/m3. The mass density ([2]; 302.9 K, 4060 kPa) was 780.8 ± 0.4 kg/m3, the mass density ([2]; 302.9 K, 5010 kPa) was 781.6 ± 0.4 kg/m3 and the mass density ([2]; 302.9 K, 6000 kPa) was 782.5 ± 0.4 kg/m3. The mass density ([2]; 302.9 K, 7020 kPa) was 783.4 ± 0.4 kg/m3, the mass density ([2]; 302.9 K, 8020 kPa) was 784.3 ± 0.4 kg/m3 and the mass density ([2]; 302.9 K, 9000 kPa) was 785.1 ± 0.4 kg/m3. It also gave a mass density ([2]; 302.9 K, 10000 kPa) of 786 ± 0.4 kg/m3, a viscosity ([2]; 303.3 K) of 1.716 ± 0.17 mPa·s and a mass density ([2]; 323 K, 1000 kPa) of 760.6 ± 0.4 kg/m3. For the same compound, the mass density ([2]; 323 K, 2020 kPa) was 761.6 ± 0.4 kg/m3, the mass density ([2]; 323 K, 3000 kPa) was 762.7 ± 0.4 kg/m3 and the mass density ([2]; 323 K, 4070 kPa) was 763.7 ± 0.4 kg/m3. For the same compound, the mass density ([2]; 323 K, 5000 kPa) was 764.7 ± 0.4 kg/m3, the mass density ([2]; 323 K, 6010 kPa) was 765.7 ± 0.4 kg/m3 and the mass density ([2]; 323 K, 7020 kPa) was 766.7 ± 0.4 kg/m3. The mass density ([2]; 323 K, 8010 kPa) was 767.7 ± 0.4 kg/m3, the mass density ([2]; 323 K, 9010 kPa) was 768.6 ± 0.4 kg/m3 and the mass density ([2]; 323 K, 10020 kPa) was 769.6 ± 0.4 kg/m3. For the same compound, the viscosity ([2]; 323.2 K) was 0.973 ± 0.04 mPa·s.

In the case of `C` [methane] + CC(C)O, the viscosity ([1]; 302.8 K, 1070 kPa, x1 = 0.019) is reported as 1.523 ± 0.19 mPa·s, the mass density ([1]; 302.8 K, 1070 kPa, x1 = 0.019) is reported as 771.2 ± 1 kg/m3 and the viscosity ([1]; 302.8 K, 2080 kPa, x1 = 0.037) is reported as 1.403 ± 0.16 mPa·s. The mass density ([1]; 302.8 K, 2080 kPa, x1 = 0.037) was 767.2 ± 2.9 kg/m3, the viscosity ([1]; 302.8 K, 3190 kPa, x1 = 0.055) was 1.339 ± 0.11 mPa·s and the mass density ([1]; 302.8 K, 3190 kPa, x1 = 0.055) was 761.2 ± 1 kg/m3. The viscosity ([1]; 302.8 K, 4080 kPa, x1 = 0.069) was 1.262 ± 0.073 mPa·s, the mass density ([1]; 302.8 K, 4080 kPa, x1 = 0.069) was 756.5 ± 3.2 kg/m3 and the viscosity ([1]; 302.8 K, 5080 kPa, x1 = 0.085) was 1.208 ± 0.18 mPa·s. For the same compound, the mass density ([1]; 302.8 K, 5080 kPa, x1 = 0.085) was 753.3 ± 2 kg/m3, the viscosity ([1]; 302.8 K, 6060 kPa, x1 = 0.1) was 1.129 ± 0.051 mPa·s and the mass density ([1]; 302.8 K, 6060 kPa, x1 = 0.1) was 748.9 ± 1 kg/m3. It also gave a viscosity ([1]; 323.1 K, 980 kPa, x1 = 0.018) of 0.908 ± 0.077 mPa·s, a mass density ([1]; 323.1 K, 980 kPa, x1 = 0.018) of 754.5 ± 2.6 kg/m3 and a viscosity ([1]; 323.1 K, 2020 kPa, x1 = 0.033) of 0.847 ± 0.098 mPa·s. For the same compound, the mass density ([1]; 323.1 K, 2020 kPa, x1 = 0.033) was 750 ± 1.9 kg/m3, the viscosity ([1]; 323.1 K, 3080 kPa, x1 = 0.049) was 0.8 ± 0.09 mPa·s and the mass density ([1]; 323.1 K, 3080 kPa, x1 = 0.049) was 745 ± 1.9 kg/m3. The viscosity ([1]; 323.1 K, 4080 kPa, x1 = 0.065) was 0.74 ± 0.095 mPa·s, the mass density ([1]; 323.1 K, 4080 kPa, x1 = 0.065) was 740.7 ± 1.3 kg/m3 and the viscosity ([1]; 323.1 K, 4980 kPa, x1 = 0.078) was 0.717 ± 0.026 mPa·s. The mass density ([1]; 323.1 K, 4980 kPa, x1 = 0.078) was 736.9 ± 3.2 kg/m3, the viscosity ([1]; 323.1 K, 6040 kPa, x1 = 0.093) was 0.676 ± 0.035 mPa·s and the mass density ([1]; 323.1 K, 6040 kPa, x1 = 0.093) was 732.3 ± 2.3 kg/m3.
